According to US4542169A, “Biomedical devices containing isothiazolones to control bacteria growth” (Rohm and Haas Company, priority 1983, dated 1985):
≈ marks a conversion by molar mass, not a printed value.

How the values were obtained:
Escherichia coli = test: Minimum inhibitory concentration, bacteriostatic activity; assay type: cell-based; details: Table III: Active Ingredient MIC
sessile colonization = test: Implanted polyvinyl chloride coated pacemakers in dogs, growth after one month; assay type: in vivo; details: for Agar culture / Visual Observation: PVC-coated pacemaker, one month
Description: The devices are inserted into dogs and allowed to remain without electrical activation for a period of one month. The devices are then removed and examined visually and by agar cultures from the surface.

P.a. = test: Zone of inhibition, silicone film; assay type: cell-based, Pseudomonas aeruginosa
Aspergillus niger = test: Minimum inhibitory concentration, fungistatic activity; assay type: cell-based; details: Table III: Active Ingredient MIC
E.c. = test: Zone of inhibition, silicone rubber film discs on inoculated agar; assay type: cell-based, Echerichia coli; details: for Zones: Silicone; for Zone of Inhibition: silicone rubber film
Description: (§1) The films were cut into 1.25 cm discs and placed in agar plates inoculated with Staphlococcus aureus (S.a) or Echerichia coli (E.c.).
(§2) The films were cut into discs and tested as in example one against S.a. and E.c.

Echerichia coli (E.c.) = test: Zone of inhibition, polyvinyl chloride film discs on inoculated agar; assay type: cell-based; details: PVC film
Procedure: (§3) In a two-liter, three-necked, round-bottom, flask equipped with a mechanical stirrer was placed 100 g of polyvinyl chloride, 590 g of reagent grade tetrahydrofuran, and 40.0 g of dioctylphthalate. This was stirred with gentle heating (35°-40° C.) for two hours to completely dissolve the polyvinyl chloride. Then, a barium/calcium salt of a fatty acid (3.5 g), a phosphite chelating agent (1.5 g), stearic Acid (0.25 g) and epoxidized soy bean oil (7.5 g), were mixed with 21 g of tetrahydrofuran and added to the polyvinyl chloride solution. After stirring at room temperature for 30 minutes, the solution was ready for use.
(§4) Films containing the isothiazolones were cast by first preparing a 0.5 weight percent polyvinyl chloride solution by adding the isothiazolone to the polyvinyl chloride solution. Then, portions of the 0.5% solution were diluted to 0.1 and 0.05%. The films were drawn down on 12"×12" glass plates using a 50 mil-3" wide coating bar and the films were allowed to air dry for 48 hours.
as §1

[1] = system: Staphlococcus aureus (S.a); test: as above; assay type: cell-based; details: PVC film
Procedure: as §3, §4, §1

Candida albicans (yeast) = test: Minimum inhibitory concentration, fungistatic activity; assay type: cell-based; details: Table III: Active Ingredient MIC
Aureobasidium pullulans = test: as above; assay type: cell-based; details: Table III: Active Ingredient MIC
S.a. = test: Zone of inhibition, silicone rubber film discs on inoculated agar; assay type: cell-based, Staphlococcus aureus; details: for Zones: Silicone; for Zones / Zone of Inhibition: S.a.; for Zone of Inhibition: silicone rubber film
Description: as §1, §2

Pseudomonas aeruginosa = test: Minimum inhibitory concentration, bacteriostatic activity; assay type: cell-based; details: Table III: Active Ingredient MIC
[2] = system: Pseudomonas aeruginosa (P.a.); test: Zone of inhibition, polyvinyl chloride (vinyl) film discs; assay type: cell-based; details: vinyl film
Procedure: as §3, §1
Discs were tested against Pseudomonas aeruginosa (P.a.). The 1.0% films gave a slight zone of inhibition while the 5.0% film gave a 1 mm zone of inhibition.

[3] = system: resistant bacterial colonies; details: with time
Staphylococcus aureus = test: Minimum inhibitory concentration, bacteriostatic activity; assay type: cell-based; details: Table III: Active Ingredient MIC
fungi = test: Observation of incubated plates (antibiotics vs Compound 1): fungal overgrowth; assay type: cell-based; details: as the plates were allowed to incubate
[4] = system: sessile colonization by bacteria or fungi; test: Implanted silicone rubber urinary catheters in dogs, growth after one week; assay type: in vivo; details: silicone catheter; for Agar culture / Visual Examination: one week
Description: These are inserted into large male dogs held in restraining harnesses. The catheters are examined for visible growth and cultured onto agar over a period of one week.

[5] = system: Aerobasidium pullulans (A.p); test: Growth of fungus on polyvinyl chloride film; assay type: cell-based; set-up: key: 0: zero (no growth); 5: five (heavy growth); details: PVC film
Procedure: as §3, §4
(§5) In addition to zones of inhibition, the films were observed by growth of fungus on the film and rated from zero (no growth) to five (heavy growth).

Aspergillis niger (A.n.) [6] = test: Growth of fungus on polyvinyl chloride film; assay type: cell-based; set-up: key: 0: zero (no growth); 5: five (heavy growth); details: PVC film
Procedure: as §3, §4, §5

Solubility in H2O = assay type: physicochemical; details: water
[7] = system: Aerobasidium pullulans (A.p); test: Zone of inhibition, polyvinyl chloride film; assay type: cell-based; details: PVC film
Aspergillis niger (A.n.) [8] = test: Zone of inhibition, polyvinyl chloride film; assay type: cell-based; details: PVC film

O=c1c(Cl)c(Cl)sn1C1CCCCC1 [Compound 1, 4,5-Dichloro-N--cyclohexyl-isothiazolin-3-one]
MIC (Escherichia coli): 16 mg/L (≈ 63.5 µM) | Agar culture (sessile colonization; 0.05%): +3 | Visual Observation (sessile colonization; 0.05%): slime covered | Agar culture (sessile colonization; 0.1%): +1 | Visual Observation (sessile colonization; 0.1%): slight slime layer | Agar culture (sessile colonization; 0.5%): trace | Visual Observation (sessile colonization; 0.5%): clean | Agar culture (sessile colonization; 1.0%): 0 | Visual Observation (sessile colonization; 1.0%): clean | efficacy in resisting sessile colonization (sessile colonization; treated polyvinyl chloride, compared to untreated control): resisting sessile colonization, particularly as compared to untreated control | Zones (P.a.; 1.0%): 3.3 mm | Zones (P.a.; 5.0%): 3.3 mm | Zones (P.a.; .20%): 0.8 mm | MIC (Aspergillus niger): 0.5 mg/L (≈ 1.98 µM) | Zones (E.c.; 1.0%): 16.3 mm | Zones (E.c.; 5.0%): 16.3 mm | Zones (E.c.; .20%): 14.3 mm | Zone of Inhibition (E.c.; Conc. 10): 0.1 mm | Zone of Inhibition (E.c.; Conc. 100): 5.5 mm | Zone of Inhibition (E.c.; Conc. 1000): 13.0 mm | Zone of Inhibition (Echerichia coli (E.c.); 0.05%): 0.8 mm | Zone of Inhibition (Echerichia coli (E.c.); 0.1%): 1.8 mm | Zone of Inhibition (Echerichia coli (E.c.); 0.5%): 4.8 mm | Zone of Inhibition ([1]; 0.05%): 1.8 mm | Zone of Inhibition ([1]; 0.1%): 4.3 mm | MIC (Candida albicans (yeast)): 0.5 mg/L (≈ 1.98 µM) | MIC (Aureobasidium pullulans): 0.5 mg/L (≈ 1.98 µM) | bacteriocide activity compared with the best commercial antibiotics (S.a.; PVC and silicone films, Table E): essential equivalency | Zones (S.a.; 1.0%): 20.3 mm | Zones (S.a.; 5.0%): 20.3 mm | Zones (S.a.; .20%): 17.8 mm | Zone of Inhibition (S.a.; Conc. 10): 0.8 mm | Zone of Inhibition (S.a.; Conc. 100): 6.8 mm | Zone of Inhibition (S.a.; Conc. 1000): 16.3 mm | MIC (Pseudomonas aeruginosa): 62 mg/L (≈ 246 µM) | Zone of Inhibition ([2]; 1.0% by weight): slight | Zone of Inhibition ([2]; 5.0% by weight): 1 mm | resistant bacterial colonies on plates [3]: ability to suppress all species and not permit the growth of antibiotic resistant species | MIC (Staphylococcus aureus): 10 mg/L (≈ 39.7 µM) | overgrowth of plates by fungi (fungi): clean | efficacy in resisting sessile colonization [4]: resisting sessile colonization by bacteria or fungi | Agar culture ([4]; 0.05% by weight): +2 | Visual Examination ([4]; 0.05% by weight): slight slime | Agar culture ([4]; 0.1% by weight): +1 | Visual Examination ([4]; 0.1% by weight): clean | Agar culture ([4]; 0.5% by weight): 0 | Visual Examination ([4]; 0.5% by weight): clean | Agar culture ([4]; 1.0% by weight): 0 | Visual Examination ([4]; 1.0% by weight): clean | Growth on Film ([5]; 0.05%): 0 | Growth on Film ([5]; 0.1%): 0 | Growth on Film ([5]; 0.5%): 0 | Growth on Film (Aspergillis niger (A.n.) [6]; 0.05%): 1 | Growth on Film (Aspergillis niger (A.n.) [6]; 0.1%): 0 | Growth on Film (Aspergillis niger (A.n.) [6]; 0.5%): 0 | solubility (Solubility in H2O): 0.091 mg/mL (≈ 361 µM) | Zone of Inhibition ([7]; 0.05%): 0 mm | Zone of Inhibition ([7]; 0.1%): 0 mm | Zone of Inhibition ([7]; 0.5%): 5.3 mm | Zone of Inhibition (Aspergillis niger (A.n.) [8]; 0.05%): 0 mm | Zone of Inhibition (Aspergillis niger (A.n.) [8]; 0.1%): 0 mm | Zone of Inhibition (Aspergillis niger (A.n.) [8]; 0.5%): 5.3 mm
